Patent US9670221B2, “Furopyridines as bromodomain inhibitors” (GlaxoSmithKline Intellectual Property (No.2) Limited, priority 2013, dated 2017)
Counter-ions that a name gives are not always drawn.

target: T1, BRD4 BD1 (Homo sapiens, UniProt O60885, Y390A); assay: TR-FRET binding assay, BRD4 BD1 (mutant protein); settings: BRD4 (1-477) mutant, 10 nM protein, read-out: pIC50 in the BRD4 BD1 assay (converted)
T1 construct: BRD4 (1-477) (Y97A) and (Y390A); made in house; host or cells: E. coli (pET15b vector)
Protocol: Time Resolved Fluorescence Resonance Energy Transfer (TR-FRET) Assay
Binding was assessed using a time resolved fluorescent resonance energy transfer binding assay. This utilises a 6 His purification tag at the N-terminal of the proteins as an epitope for an anti-6 His antibody labeled with Europium chelate (PerkinElmer AD0111) allowing binding of the Europium to the proteins which acts as the donor fluorophore. A small molecule, high affinity binder of the bromodomains BRD2, BRD3, BRD4 and BRDT has been labeled with Alexa Fluor647 (Reference Compound X) and this acts as the acceptor in the FRET pair.
Assay Principle: In the absence of a competing compound, excitation of the Europium causes the donor to emit at λ618 nm which excites the Alexa labelled bromodomain binding compound leading to an increased energy transfer that is measurable at λ647 […]. In the presence of a sufficient concentration of a compound that can bind these proteins, the interaction is disrupted leading to a quantifiable drop in fluorescent resonance energy transfer.
The binding of the compounds of formula (I) to Bromodomains BRD2, BRD3, BRD4 and BRDT was assessed using mutated proteins to detect differential binding to either Binding Domain 1 (BD1) or Binding Domain 2 (BD2) on the bromodomain. These single residue mutations in the acetyl lysine binding pocket greatly lower the affinity of the fluoroligand (Reference Compound X) for the mutated domain (>1000 fold selective for the non-mutated domain). Therefore in the final assay conditions, binding of the fluoroligand to the mutated domain cannot be detected and subsequently the assay is suitable to determine the binding of compounds to the single non-mutated bromodomain.
Protein production: Recombinant Human Bromodomains [(BRD2 (1-473) (Y113A) and (Y386A), BRD3 (1-435) (Y73A) and (Y348A) BRD4 (1-477) (Y97A) and (Y390A) and BRDT (1-397) (Y66A) and (Y309A)] were expressed in E. coli cells (in pET15b vector for BRD2/3/4 and in pET28a vector for BRDT) with a 6-His tag at the N-terminal. The His-tagged Bromodomain pellet was resuspended in 50 mM HEPES (pH7.5), 300 mM NaCl, 10 mM imidazole & 1 μl/mL protease inhibitor cocktail and extracted from the E. coli cells using sonication and purified using a nickel sepharose high performance column, the proteins were washed and then eluted with a linear gradient of 0-500 mM imidazole with buffer 50 mM HEPES (pH7.5), 150 mM NaCl, 500 mM imidazole, over 20 column volumes. Final purification was completed by Superdex 200 prep grade size exclusion column. Purified protein was stored at −80° C. in 20 mM HEPES pH 7.5 and 100 mM NaCl. Protein identity was confirmed by peptide mass fingerprinting and predicted molecular weight confirmed by mass spectrometry.
Protocol for Bromodomain BRD2, 3, 4 and T, BD1^+BD2 mutant assays: All assay components were dissolved in buffer composition of 50 mM HEPES pH7.4, 50 mM NaCl, 5% Glycerol, 1 mM DTT and 1 mM CHAPS. The final concentration of bromodomain proteins were 10 nM and the Alexa Fluor647 ligand was at Kd. These components were premixed and 5 μl of this reaction mixture was added to all wells containing 50 nl of various concentrations of test compound or DMSO vehicle (0.5% DMSO final) in Greiner 384 well black low volume microtitre plates and incubated in dark for 30 minutes at room temperature. 5 μl of detection mixture containing 1.5 nM final concentration anti-6His Europium chelate was added to all wells and a further dark incubation of at least 30 minutes was performed. Plates were then read on the Envision platereader, (λex=317 nm, donor λem=615 nm; acceptor λem=665 nm; Dichroic LANCE dual). Time resolved fluorescent intensity measurements were made at both emission wavelengths and the ratio of acceptor/donor was calculated and used for data analysis. All data was normalized to the mean of 16 high (inhibitor control—Example 11 of WO 2011/054846A1) and 16 low (DMSO) control wells on each plate. […]

| IC50 [nM] | Structure (SMILES) |
| --- | --- |
| ≤ 100 | CC(=O)Nc1cc(-c2cn(C)c(=O)c3cc(C(C)N4CCN(S(C)(=O)=O)CC4)oc23)ccn1 (stereo not shown) [Example 36, N-(4-(5-methyl-2-(1-(4-(methylsulfonyl)piperazin-1-yl)ethyl)-4-oxo-4,5-dihydrofuro[3,2-c]pyridin-7-yl)pyridin-2-yl)acetamide, formic acid salt] |
| ≤ 100 | CC(=O)Nc1cc(-c2cn(C)c(=O)c3cc(CN4CCN(S(C)(=O)=O)CC4)oc23)ccn1 [Example 37, N-(4-(5-methyl-2-((4-(methylsulfonyl)piperazin-1-yl)methyl)-4-oxo-4,5-dihydrofuro[3,2-c]pyridin-7-yl)pyridin-2-yl)acetamide] |
| ≤ 100 | CC(=O)Nc1cncc(-c2cn(C)c(=O)c3cc(CN4CCN(S(C)(=O)=O)C[C@H]4C)oc23)c1 [Example 38, (R)—N-(5-(5-methyl-2-((2-methyl-4-(methylsulfonyl)piperazin-1-yl)methyl)-4-oxo-4,5-dihydrofuro[3,2-c]pyridin-7-yl)pyridin-3-yl)acetamide] |
| ≤ 100 | Cn1cc(-c2ccncc2NCC2CC2)c2oc(CN3CCN(S(C)(=O)=O)CC3)cc2c1=O [Example 39, 7-(3-((cyclopropylmethyl)amino)pyridin-4-yl)-5-methyl-2-((4-(methylsulfonyl)piperazin-1-yl)methyl)furo[3,2-c]pyridin-4(5H)-one] |
| ≤ 100 | C[C@@H]1CN(S(C)(=O)=O)CCN1Cc1cc2c(=O)n(C)cc(-c3ccncc3NCC3CC3)c2o1 [Example 40, (R)-7-(3-((cyclopropylmethyl)amino)pyridin-4-yl)-5-methyl-2-((2-methyl-4-(methylsulfonyl)piperazin-1-yl)methyl)furo[3,2-c]pyridin-4(5H)-one] |
| ≤ 100 | C[C@@H]1CN(S(C)(=O)=O)CCN1Cc1cc2c(=O)n(C)cc(-c3ccncc3OCC3CCO3)c2o1 (stereo partly drawn) [Example 41, 5-methyl-2-(((R)-2-methyl-4-(methylsulfonyl)piperazin-1-yl)methyl)-7-(3-(oxetan-2-ylmethoxy)pyridin-4-yl)furo[3,2-c]pyridin-4(5H)-one] |
| ≤ 100 | C[C@@H]1CN(S(C)(=O)=O)CCN1Cc1cc2c(=O)n(C)cc(-c3ccncc3OC[C@H]3CCO3)c2o1 [Example 42, 5-methyl-2-(((R)-2-methyl-4-(methylsulfonyl)piperazin-1-yl)methyl)-7-(3-((R)-oxetan-2-ylmethoxy)pyridin-4-yl)furo[3,2-c]pyridin-4(5H)-one] |
| ≤ 100 | C[C@@H]1CN(S(C)(=O)=O)CCN1Cc1cc2c(=O)n(C)cc(-c3ccncc3OC[C@@H]3CCO3)c2o1 [Example 43, 5-methyl-2-(((R)-2-methyl-4-(methylsulfonyl)piperazin-1-yl)methyl)-7-(3-((S)-oxetan-2-ylmethoxy)pyridin-4-yl)furo[3,2-c]pyridin-4(5H)-one] |
| ≤ 100 | C[C@@H]1CN(S(C)(=O)=O)CCN1Cc1cc2c(=O)n(C)cc(-c3ncccc3OCC3CC3)c2o1 [Example 44, (R)-7-(3-(cyclopropylmethoxy)pyridin-2-yl)-5-methyl-2-((2-methyl-4-(methylsulfonyl)piperazin-1-yl)methyl)furo[3,2-c]pyridin-4(5H)-one] |
| ≤ 100 | C[C@@H]1CN(S(C)(=O)=O)CCN1Cc1cc2c(=O)n(C)cc(-c3ccncc3OCC3COC3)c2o1 [Example 46, (R)-5-methyl-2-((2-methyl-4-(methylsulfonyl)piperazin-1-yl)methyl)-7-(3-(oxetan-3-ylmethoxy)pyridin-4-yl)furo[3,2-c]pyridin-4(5H)-one] |
| ≤ 100 | CC(=O)N1CCN(Cc2cc3c(=O)n(C)cc(-c4ccnc(OCC5CCOCC5)c4)c3o2)C(C)C1 (stereo not shown) [Example 47, 2-((4-acetyl-2-methylpiperazin-1-yl)methyl)-5-methyl-7-(2-((tetrahydro-2H-pyran-4-yl)methoxy)pyridin-4-yl)furo[3,2-c]pyridin-4(5H)-one hydrochloride] |
| ≤ 100 | CC(=O)Nc1cccc(-c2cn(C)c(=O)c3cc(CN4CCN(S(C)(=O)=O)CC4)oc23)c1 [Example 48, N-(3-(5-methyl-2-((4-(methylsulfonyl)piperazin-1-yl)methyl)-4-oxo-4,5-dihydrofuro[3,2-c]pyridin-7-yl)phenyl)acetamide] |
| ≤ 100 | C[C@@H]1CN(S(C)(=O)=O)CCN1Cc1cc2c(=O)n(C)cc(-c3cccnc3NCC3CC3)c2o1 [Example 49, (R)-7-(2-((cyclopropylmethyl)amino)pyridin-3-yl)-5-methyl-2-((2-methyl-4-(methylsulfonyl)piperazin-1-yl)methyl)furo[3,2-c]pyridin-4(5H)-one] |
| ≤ 100 | C[C@@H]1CN(S(C)(=O)=O)CCN1Cc1cc2c(=O)n(C)cc(-c3cccc(N)c3)c2o1 [Example 50, (R)-7-(3-aminophenyl)-5-methyl-2-((2-methyl-4-(methylsulfonyl)piperazin-1-yl)methyl)furo[3,2-c]pyridin-4(5H)-one] |
| ≤ 100 | CCOc1cnccc1-c1cn(C)c(=O)c2cc(CN3CCN(S(C)(=O)=O)C[C@H]3C)oc12 [Example 52, (R)-7-(3-ethoxypyridin-4-yl)-5-methyl-2-((2-methyl-4-(methylsulfonyl)piperazin-1-yl)methyl)furo[3,2-c]pyridin-4(5H)-one] |
| ≤ 100 | CC(=O)Nc1cccc(-c2cn(C)c(=O)c3cc(CN4CCN(S(C)(=O)=O)C[C@H]4C)oc23)n1 [Example 54, (R)-N-(6-(5-methyl-2-((2-methyl-4-(methylsulfonyl)piperazin-1-yl)methyl)-4-oxo-4,5-dihydrofuro[3,2-c]pyridin-7-yl)pyridin-2-yl)acetamide] |
| ≤ 100 | Cn1cc(-c2ccncc2OCC2CC2)c2oc(CN3CCCNCC3)cc2c1=O [Example 55, 2-((1,4-diazepan-1-yl)methyl)-7-(3-(cyclopropylmethoxy)pyridin-4-yl)-5-methylfuro[3,2-c]pyridin-4(5H)-one hydrochloride] |
| ≤ 100 | CN1CCCN(Cc2cc3c(=O)n(C)cc(-c4ccncc4OCC4CC4)c3o2)CC1 [Example 56, 7-(3-(cyclopropylmethoxy)pyridin-4-yl)-5-methyl-2-((4-methyl-1,4-diazepan-1-yl)methyl)furo[3,2-c]pyridin-4(5H)-one hydrochloride] |
| ≤ 100 | CN1CCCN(Cc2cc3c(=O)n(C)cc(-c4cccc(NCc5ccccn5)c4)c3o2)CC1 [Example 57, 5-methyl-2-((4-methyl-1,4-diazepan-1-yl)methyl)-7-(3-((pyridin-2-ylmethyl)amino)phenyl)furo[3,2-c]pyridin-4(5H)-one hydrochloride] |
| ≤ 100 | CC(C)Oc1cnccc1-c1cn(C)c(=O)c2cc(CN3CCN(S(C)(=O)=O)C[C@H]3C)oc12 [Example 58, (R)-7-(3-isopropoxypyridin-4-yl)-5-methyl-2-((2-methyl-4-(methylsulfonyl)piperazin-1-yl)methyl)furo[3,2-c]pyridin-4(5H)-one] |
| ≤ 100 | C[C@@H]1CN(S(C)(=O)=O)CCN1Cc1cc2c(=O)n(C)cc(-c3ccnc(N)c3)c2o1 [Example 59, (R)-7-(2-aminopyridin-4-yl)-5-methyl-2-((2-methyl-4-(methylsulfonyl)piperazin-1-yl)methyl)furo[3,2-c]pyridin-4(5H)-one] |
| ≤ 100 | C[C@@H]1CN(S(C)(=O)=O)CCN1Cc1cc2c(=O)n(C)cc(-c3ccncc3O)c2o1 [Example 60, (R)-7-(3-hydroxypyridin-4-yl)-5-methyl-2-((2-methyl-4-(methylsulfonyl)piperazin-1-yl)methyl)furo[3,2-c]pyridin-4(5H)-one] |
